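Cells were grown in 96-well plates and exposed to each compound for 48 hours at five concentrations; endpoints were interpolated linearly between bracketing concentrations, or set to the highest concentration if not reached. Here, GI50 denotes the concentration required for 50% inhibition of growth.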 Active and inactive are the calls of the source. Cut-off read from the data, not from the text of the source: active = GI50 up to about 1.1 µM and inactive = higher.
Legend:
Assay in all cases: NCI tumour cell line growth inhibition, 48 h
A498 = system: A498
A549 = system: A549
ACHN = system: ACHN
CAKI-1 = system: CAKI-1
HOP-62 = system: HOP-62
Hs-578T = system: Hs-578T
K562 = system: K562
KM12 = system: KM12
Malme-3M = system: Malme-3M
NCI-H460 = system: NCI-H460
OVCAR-5 = system: OVCAR-5
RXF 393 = system: RXF 393
SK-MEL-2 = system: SK-MEL-2
SK-MEL-5 = system: SK-MEL-5
SK-OV-3 = system: SK-OV-3
TK-10 = system: TK-10
U-251 = system: U-251
UACC-257 = system: UACC-257
NCI-H226 = system: NCI-H226

Measured: GI50

CC(C)(C)OC(=O)C(C1NC(C(=O)O)C(C)(C)S1)N1C(=O)c2ccccc2C1=O (configuration not stated)
inactive: A498 > 100 µM | A549 > 100 µM | ACHN > 100 µM | CAKI-1 > 100 µM | HOP-62 > 100 µM | Hs-578T > 100 µM | K562 > 100 µM | KM12 > 100 µM | Malme-3M > 100 µM | NCI-H460 > 100 µM | OVCAR-5 > 100 µM | RXF 393 > 100 µM | SK-MEL-2 > 100 µM | SK-MEL-5 > 100 µM | SK-OV-3 > 100 µM | TK-10 > 100 µM | U-251 > 100 µM | UACC-257 > 100 µM

c1ccc(-c2cc(-c3cccs3)c(-c3cccs3)s2)cc1
inactive: A498 80.2 µM | ACHN 70.5 µM | CAKI-1 26.4 µM | HOP-62 > 100 µM | Hs-578T 70 µM | KM12 14.9 µM | NCI-H226 > 100 µM | NCI-H460 56.8 µM | OVCAR-5 > 100 µM | RXF 393 16.6 µM | SK-MEL-5 33.7 µM | SK-OV-3 > 100 µM | TK-10 32.2 µM | U-251 78.7 µM | UACC-257 56.8 µM

O=C1CCCC2=C1CC1=C(CCCC1=O)N2c1cccc([N+](=O)[O-])c1
inactive: A498 > 100 µM | A549 > 100 µM | ACHN > 100 µM | CAKI-1 > 100 µM | Hs-578T > 100 µM | K562 > 100 µM | KM12 > 100 µM | NCI-H226 > 100 µM | NCI-H460 > 100 µM | OVCAR-5 > 100 µM | RXF 393 67.9 µM | SK-MEL-5 > 100 µM | SK-OV-3 > 100 µM | TK-10 > 100 µM | U-251 > 100 µM

CN(Cc1c2ccccc2cc2ccccc12)S(=O)(=O)c1ccc(-c2c3nc(c(-c4ccc(S(=O)(=O)N(C)Cc5c6ccccc6cc6ccccc56)cc4)c4ccc([nH]4)c(-c4ccc(S(=O)(=O)N(C)Cc5c6ccccc6cc6ccccc56)cc4)c4nc(c(-c5ccc(S(=O)(=O)N(C)Cc6c7ccccc7cc7ccccc67)cc5)c5ccc2[nH]5)C=C4)C=C3)cc1
inactive: A498 > 100 µM | A549 > 100 µM | ACHN > 100 µM | CAKI-1 > 100 µM | HOP-62 30.3 µM | Hs-578T 57.8 µM | K562 > 100 µM | KM12 > 100 µM | Malme-3M > 100 µM | NCI-H460 > 100 µM | OVCAR-5 > 100 µM | RXF 393 42.1 µM | SK-MEL-2 > 100 µM | SK-MEL-5 > 100 µM | SK-OV-3 > 100 µM | TK-10 > 100 µM | U-251 47.2 µM | UACC-257 > 100 µM

CC[C@@H]1CC[C@@H]2[C@H](CC[C@]3(C)[C@@H](OS(=O)(=O)c4ccc(C)cc4)CC[C@@H]23)[C@H]1CO
inactive: A498 > 100 µM | A549 > 100 µM | ACHN > 100 µM | CAKI-1 > 100 µM | HOP-62 > 100 µM | Hs-578T > 100 µM | K562 69.2 µM | KM12 > 100 µM | Malme-3M > 100 µM | NCI-H226 > 100 µM | NCI-H460 > 100 µM | OVCAR-5 > 100 µM | RXF 393 > 100 µM | SK-MEL-5 42.6 µM | TK-10 > 100 µM | U-251 > 100 µM | UACC-257 80.2 µM

Cc1cc2c(c(/C=N/c3ccccc3O)c1)OC1(C=C2)Oc2ccccc2C(=O)N1C (configuration not stated)
inactive: A498 18.6 µM | A549 21.7 µM | ACHN 14.2 µM | CAKI-1 13.3 µM | HOP-62 18.8 µM | Hs-578T 11.6 µM | K562 12.3 µM | KM12 20.8 µM | NCI-H226 15.4 µM | NCI-H460 16.7 µM | OVCAR-5 13.2 µM | RXF 393 13 µM | SK-MEL-2 19.5 µM | SK-MEL-5 15.2 µM | SK-OV-3 24.4 µM | TK-10 16.8 µM | U-251 18.2 µM | UACC-257 14.1 µM

COC(=O)C1(Cc2ccc3c(c2)CCC3)Cc2ccc3c(c2C1)CCC3 (configuration not stated)
inactive: A498 22.3 µM | A549 27.4 µM | ACHN 24.1 µM | CAKI-1 21.6 µM | HOP-62 30.1 µM | Hs-578T 17.4 µM | K562 85.5 µM | KM12 17.7 µM | Malme-3M 16.5 µM | NCI-H226 21.1 µM | NCI-H460 24.8 µM | RXF 393 24 µM | SK-MEL-5 16.6 µM | SK-OV-3 52.8 µM | TK-10 49.7 µM | U-251 17.3 µM | UACC-257 5.61 µM

COc1ccccc1N1C(=O)/C(=C\c2cccc(Oc3ccccc3)c2)SC1c1ccccc1 (configuration not stated)
inactive: A498 > 100 µM | A549 34.3 µM | ACHN 35.5 µM | CAKI-1 > 100 µM | HOP-62 73.3 µM | Hs-578T 39.4 µM | K562 15 µM | KM12 42.6 µM | Malme-3M 37.6 µM | NCI-H460 49 µM | OVCAR-5 > 100 µM | RXF 393 56.9 µM | SK-MEL-2 29.9 µM | SK-MEL-5 14.4 µM | SK-OV-3 47.4 µM | TK-10 > 100 µM | U-251 38.4 µM | UACC-257 31.3 µM

CSC(=S)CC(O)[C@@H]1CC2c3ccccc3C1c1ccccc12 (some centres not stated)
inactive: A498 20.7 µM | A549 17.1 µM | ACHN 13.6 µM | HOP-62 15.7 µM | Hs-578T 15 µM | K562 4.56 µM | KM12 11.3 µM | Malme-3M 19.7 µM | NCI-H226 9.06 µM | NCI-H460 14.6 µM | OVCAR-5 16.7 µM | RXF 393 2.19 µM | SK-MEL-5 13.4 µM | SK-OV-3 15.3 µM | TK-10 15.2 µM | U-251 3.55 µM

O=C1c2ccccc2C(=O)C2NC(CCCCCSSCCCCCC3=NC4C(=O)c5ccccc5C(=O)C4N3)=NC12 (configuration not stated)
inactive: A498 23.7 µM | ACHN 10.4 µM | CAKI-1 6.47 µM | HOP-62 > 100 µM | Hs-578T 25.7 µM | K562 > 100 µM | KM12 80.9 µM | NCI-H226 > 100 µM | NCI-H460 > 100 µM | OVCAR-5 > 100 µM | RXF 393 22.3 µM | SK-MEL-2 > 100 µM | SK-MEL-5 19.9 µM | SK-OV-3 50.8 µM | TK-10 68.2 µM | U-251 17.6 µM | UACC-257 64.3 µM

O=C(O)c1ccccc1C(=O)Nc1cc2c(cc1Br)-c1ccccc1C2=O
inactive: A498 > 100 µM | A549 > 100 µM | ACHN > 100 µM | CAKI-1 > 100 µM | HOP-62 > 100 µM | Hs-578T 91.2 µM | K562 > 100 µM | KM12 > 100 µM | Malme-3M > 100 µM | NCI-H460 > 100 µM | OVCAR-5 > 100 µM | RXF 393 48 µM | SK-MEL-2 > 100 µM | SK-MEL-5 > 100 µM | SK-OV-3 > 100 µM | TK-10 > 100 µM | U-251 87.5 µM | UACC-257 > 100 µM

— ChEMBL document CHEMBL1201862, “PubChem BioAssay data set” (2004)
